{"source": "paper PMC6099358", "about": "(Diabetes, Obesity & Metabolism, 2018)", "origin": "cited, not measured here", "test_system": "participants with T1DM", "conditions": "cited from earlier work", "note": "Like-named read-outs stand apart in the source and are kept apart here."}
{"smiles": "CCOc1ccc(Cc2cc([C@@H]3O[C@H](SC)[C@@H](O)[C@H](O)[C@H]3O)ccc2Cl)cc1", "note": "[sotagliflozin]", "values": [{"measurement": "DKA", "setting": "vs placebo 4 [0.6%]", "result": "21 [3.0%] participants [%]"}]}
{"smiles": "Cc1ccc([C@@H]2O[C@H](CO)[C@@H](O)[C@H](O)[C@H]2O)cc1Cc1ccc(-c2ccc(F)cc2)s1", "note": "[canagliflozin]", "values": [{"measurement": "DKA", "setting": "100 mg, vs placebo 0", "result": "5 [4.3%] participants [%]"}, {"measurement": "DKA", "setting": "300 mg, vs placebo 0", "result": "7 [6.0%] participants [%]"}]}
